Results taken from PMC7799364, “Dual inhibition of the terminal oxidases eradicates antibiotic‐tolerant Mycobacterium tuberculosis” (EMBO Molecular Medicine, 2020).

What was measured:
[1] = target: T1, cytochrome bd oxidase (Cyt-bd) (Mycolicibacterium smegmatis, UniProt A0QXA8); test: reduced minus oxidized heme difference spectra of NADH-energized ΔqcrCAB IMVs with […] compound; type: cell-based
T1 construct: gene MSMEG_3233; native enzyme in inverted-membrane vesicles of M. smegmatis ΔqcrCAB; with CydB
T1 sequence (A0QXA8 1-487): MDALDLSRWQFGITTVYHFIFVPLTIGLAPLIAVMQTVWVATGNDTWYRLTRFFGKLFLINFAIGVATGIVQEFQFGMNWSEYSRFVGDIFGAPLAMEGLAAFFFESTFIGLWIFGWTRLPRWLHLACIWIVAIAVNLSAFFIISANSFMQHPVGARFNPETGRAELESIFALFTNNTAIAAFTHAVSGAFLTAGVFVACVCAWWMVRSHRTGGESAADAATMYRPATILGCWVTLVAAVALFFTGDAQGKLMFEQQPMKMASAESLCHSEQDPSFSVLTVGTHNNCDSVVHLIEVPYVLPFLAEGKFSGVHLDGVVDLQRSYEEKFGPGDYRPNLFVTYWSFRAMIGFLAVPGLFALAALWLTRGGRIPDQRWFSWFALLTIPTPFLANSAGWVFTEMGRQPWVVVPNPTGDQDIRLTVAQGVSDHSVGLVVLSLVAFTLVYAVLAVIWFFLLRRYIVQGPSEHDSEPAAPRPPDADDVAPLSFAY
T1 sequence (A0QXA7 1-350 partner): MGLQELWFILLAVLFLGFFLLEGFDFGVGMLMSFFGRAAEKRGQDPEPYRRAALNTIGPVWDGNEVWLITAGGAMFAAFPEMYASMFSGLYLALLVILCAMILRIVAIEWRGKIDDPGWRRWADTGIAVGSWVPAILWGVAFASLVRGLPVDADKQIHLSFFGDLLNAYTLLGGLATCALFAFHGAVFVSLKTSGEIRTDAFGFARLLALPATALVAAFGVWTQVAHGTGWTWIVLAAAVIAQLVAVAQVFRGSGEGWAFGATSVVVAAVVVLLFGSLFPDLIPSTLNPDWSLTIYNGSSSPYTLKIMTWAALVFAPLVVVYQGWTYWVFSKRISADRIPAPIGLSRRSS

[2] = target: T2, cytochrome bcc (QcrB, cytochrome b subunit of cytochrome bcc:aa3) (Mycolicibacterium smegmatis, UniProt A0R052); test: NADH-based heme difference spectra of wild-type IMVs with […] Q203; Q203 also inhibits OCR of ΔcydAB IMVs; type: cell-based
T2 construct: gene MSMEG_4263; native cytochrome bcc-aa3 supercomplex in wild-type inverted-membrane vesicles; with cytochrome bcc-aa3 supercomplex

In the case of `FC(F)(F)c1ccc(Oc2ccc(Nc3ncnc4ccccc34)cc2)cc1` [ND-011992, N‐(4‐(4‐(trifluoromethyl)phenoxy)phenyl)quinazolin‐4‐amine], the “reduced minus oxidized heme difference spectra of NADH-energized ΔqcrCAB IMVs wi” value [1] was “the compound selectively binds and affects electron transfer in the mycobacterial Cyt‐bd”.
With `CCc1nc2ccc(Cl)cn2c1C(=O)NCc1ccc(N2CCC(c3ccc(OC(F)(F)F)cc3)CC2)cc1` [Q203] the “NADH-based heme difference spectra of wild-type IMVs with 7.5 μM Q203; Q203 also” value [2] was “confirming drug binding and inhibition of the electron transfer within the cytochrome bcc complex”.
